Laboratory results reported in patent US20240417734A1, “Methods for Treating Glioblastoma by Targeting Oncomirs” (University of Connecticut, priority 2021, published 2024).

Experiments:
[1] = tested on: patient (G22) derived intracranial gliomas; test: Survival study, patient-derived G22 orthotopic tumors; type: in vivo, mice; details: G22 orthotopic model; single dose TMZ 25 mg/kg
Protocol: (§1) Animals were anaesthetized using a mixture of ketamine (100 mg/kg) and xylazine (10 mg/kg) via intraperitoneal injection. Anesthetized animals were then placed in a stereotaxic frame and sterilized the scalp with betadine and alcohol. To expose the coronal and sagittal sutures, a midline scalp incision was created, and a burr hole was drilled 2 mm lateral to the sagittal suture and 0.5 mm anterior to the bregma. U87 or G22 cells ([…]) in 3 μL PBS were injected into the right stratum over 3 min using a 10-μL Hamilton syringe. The animal was left 5 min for tissue equilibration before and after infusion. When infusion was finished, the burr hole was filled with bone wax and skin was stapled and cleaned.
(§2) CED in tumor bearing mice was similar to tumor inoculation by reopening the burr hole used for tumor inoculation. A micro-infusion pump (World Precision Instruments) was used to infuse 6 μL of NPs at a rate of […].
(§3) Tumors grew for 6 days before the administration of treatment. Intracranial CED of sγPNA/BNP was conducted following the same surgical procedure as described. TMZ (25 mg/kg) in PBS was administered intraperitoneally on day 7. Animals were monitored daily and weighed every week. […] Total RNA in the tumor and contralateral hemisphere was isolated using mirVana miRNA Isolation Kit and analyzed by real-time PCR detection system as previously described.

intracranial U87 tumors = test: Survival study, intracranial U87 tumors; type: in vivo, mice; details: NPs by CED 6 days post inoculation, TMZ 25 mg/kg i.p.
Protocol: as §1, §2, §3

U87 cells = test: Cell viability assay, U87; type: cell-based, human; details: BNP 0.5 mg/mL, TMZ 20 μM
Protocol: Cells were seeded in 96-well plates at a density of 5,000 cells/well and treated with increasing concentrations of NP formulations. Cell viability was evaluated by CellTiter-Glo Luminescent Cell Viability Assay (Promega) after 48 h, 72 h treatment. Luminescence was measured using a plate reader (SpectraMax M5) and relative cell viability was normalized to the viability of untreated cells. For TMZ involved combination studies, cells were seeded in 96-well plates at a density of 1,000 cells/well and exposed to sγPNA/NNP and sγPNA/BNP. After 72 h of treatments, NPs were removed and TMZ was added to the wells. Cell viability was measured as described above after 6 days of treatment.

Cn1nnc2c(C(N)=O)ncn2c1=O [TMZ, Temozolomide]
Median survival [1]: 79 days
Median survival (intracranial U87 tumors): 81 days
Cell viability/100 (U87 cells): 0.66
viability at 20 µM (U87 cells; Homo sapiens, U-87 MG, read-out: Cell viability (% of control)): 66%
